In brackets after ≈: the same amount, converted by molar mass.
Legend:
Assay in all cases: MIC, growth inhibition in nutrient broth
Format in all cases: cell-based
Proteus mirabilis = system: Proteus mirabilis
Staph. aureus Oxford = settings: Staphylococcus aureus
S. typhimurium = settings: Salmonella enterica
Klebsiella aerogenes = system: Klebsiella aerogenes
B. subtilis = settings: Bacillus subtilis
E. coli = settings: Escherichia coli
Staph. aureus Russell = settings: Staphylococcus aureus, Staph. aureus Russell (β-lactamase-producing benylpenicillin-resistant strain)
Strep. pyogenes = settings: Streptococcus pyogenes
Strep. faecalis = settings: Enterococcus faecalis

Compound: COC(=O)C1C[C@@H]2[C@H](NC(=O)COc3ccccc3)C(=O)N2[C@H]1C(=O)O (mixture of isomers) [compound 17, (2RS, 5RS, 6SR) 1-Aza-3-methoxycarbonyl-6-phenoxyacetamidobicyclo [3.2.0] -heptan-7-one-2-carboxylic acid]
- MIC (Proteus mirabilis): 62 µg/mL (≈ 171 µM)
- MIC (Staph. aureus Oxford): < 0.5 µg/mL
- MIC (S. typhimurium): 250 µg/mL (≈ 690 µM)
- MIC (Klebsiella aerogenes): 250 µg/mL (≈ 690 µM)
- MIC (B. subtilis): 2 µg/mL (≈ 5.52 µM)
- MIC (E. coli): 250 µg/mL (≈ 690 µM)
- MIC (Staph. aureus Russell): 62 µg/mL (≈ 171 µM)
- MIC (Strep. pyogenes): < 10.5 µg/mL
- MIC (Strep. faecalis): 8 µg/mL (≈ 22.1 µM)

— patent EP0073100B1, “Beta-lactam compounds, their preparation and their use” (BEECHAM GROUP PLC, priority 1981, dated 1983)
